From patent publication US20060178307A1, “Modulation of NMDA receptor currents via orexin receptor and/or CRF receptor” (priority 2005, published 2006)
Entries after “also recorded” stand apart in the source; their conditions may differ. Where no end group is shown, it is not given here.

Experiments:
[1] = tested on: AMPAR/NMDAR ratio of EPSCs in VTA dopamine cells; experiment: AMPAR/NMDAR ratio in VTA slices 24 hr after 5-day in vivo treatment; parameters: species or system rat; details: 5 days
Procedure: The next study investigated whether orexin signaling in the VTA is required for the long-term plasticity associated with the development of behavioral sensitization. Long-term synaptic plasticity at excitatory synapses on VTA neurons was examined 24 hr after a 5-day treatment of cocaine (15 mg/kg) or saline (0.9%), a time course shown to induce long-lasting locomotor sensitization to cocaine (Thomas et al., 2001), with or without the OXR1 antagonist, SB 334867 (10 mg/kg, FIG. 5). To assay for synaptic plasticity, the relative contributions of AMPARs and NMDARs to EPSCs recorded in VTA dopamine cells were compared. Consistent with the potentiation observed following acute and 7-day cocaine treatments (Borgland et al., 2004), 5-day treatment with cocaine potentiated the AMPAR/NMDAR ratio compared to saline controls (FIG. 5A, saline: 0.4±0.07, n=4; cocaine: 0.8±0.1, n=4, p<0.05). This potentiation of synaptic plasticity was blocked by 5-day treatment with the OXR1 antagonist, SB 334867, administered 15 min prior to cocaine or saline (FIG. 5A, saline+SB334867: 0.4±0.02, n=5 vs. cocaine+SB334867: 0.5±0.08, n=11, p>0.05). Since OXR1 antagonists block cocaine-mediated potentiation of the AMPAR/NMDAR ratio, orexin A may either facilitate cocaine-mediated synaptic plasticity or enhance synaptic transmission itself. A 5-min orexin A application was performed to determine whether this caused changes in AMPAR/NMDAR ratio either 15 min or 3-4 hours after application (FIG. 5B).
To calculate the AMPAR/NMDAR ratio, an average of 12 EPSCs at +40 mV was computed before and after application of the NMDAR blocker, AP5 (50 μM) for 5 min. NMDAR responses were calculated by subtracting the average response in the presence of AP5 (AMPAR only) from that seen in its absence; the peak of the AMPAR EPSC was divided by the peak of the NMDAR EPSC to yield an AMPAR/NMDAR ratio.
Male Sprague-Dawley Rats (P21-P30; Charles River, N.C.) were singly housed with food and water available ad libitum. A 12 hr light/dark cycle was used, with the lights on at 7:00 A.M. All cocaine injections and behavioral testing were performed during the light cycle for consecutive days. The four treatment groups consisted of rats given 5 daily i.p. injections of SB 334867 (10 mg/kg) 15 min preceding i.p. injection of cocaine (15 mg/kg) or saline (0.9% NaCl), or i.p. injections of vehicle (10% DMSO and 25% β-hydroxy cyclodextrin in saline) 15 min preceding i.p. injection of cocaine or saline. […] Locomotor activity was measured in 17″×17″ chambers lined with three 16-beam I/R arrays. […] Distance traveled was measured using Open Field Activity Software (Med Associates, Inc) and analyzed for estimates of locomotion based on the movement of a given distance and resting delay (movement in a given period of time).

[2] = tested on: locomotor activity; experiment: Locomotor sensitization to cocaine, i.p. OXR1 antagonist, open field; format: in vivo, Sprague-Dawley rats
Procedure: To determine if orexin signaling plays a role in behavioral sensitization to cocaine, either the OXR1 antagonist SB 334867 (10 mg/kg, i.p.) or vehicle was injected 15 min prior to injecting cocaine (15 mg/kg, i.p) or saline (0.9%), and then the rats were placed in an open field chamber to measure locomotor activity for 1 hour each day for 5 days.
Therefore, to determine if expression of cocaine sensitization requires release of orexin acting at the OXR1 receptor, the OXR1 antagonist SB 334867 (10 mg/kg) was injected with cocaine (15 mg/kg) on day 6 into either cocaine-sensitized or saline-treated rats.
Male Sprague-Dawley Rats (P21-P30; Charles River, N.C.) were singly housed with food and water available ad libitum. A 12 hr light/dark cycle was used, with the lights on at 7:00 A.M. All cocaine injections and behavioral testing were performed during the light cycle for consecutive days. The four treatment groups consisted of rats given 5 daily i.p. injections of SB 334867 (10 mg/kg) 15 min preceding i.p. injection of cocaine (15 mg/kg) or saline (0.9% NaCl), or i.p. injections of vehicle (10% DMSO and 25% β-hydroxy cyclodextrin in saline) 15 min preceding i.p. injection of cocaine or saline. All animals were habituated to the photocell boxes (Med Associates, St. Albans, Vt.) for 2 hours prior to the start of the experiment. All animals were further habituated to the photocell boxes for 30 min prior to 60 min testing session. Locomotor activity was measured in 17″×17″ chambers lined with three 16-beam I/R arrays. A 50 ms scanning rate was used for measurement of beams broken. Distance traveled was measured using Open Field Activity Software (Med Associates, Inc) and analyzed for estimates of locomotion based on the movement of a given distance and resting delay (movement in a given period of time).

[3] = tested on: cocaine reinforcement; experiment: Operant cocaine self-administration, progressive ratio schedule; format: in vivo, rats; details: 10 mg/kg i.p. on 4th day of progressive ratio, n=12
Procedure: Rats were cannulated with an intra-venous cannula to their jugular vein. After one week to 10 days of recovery, the animals were trained to lever press for cocaine (0.5 mg/infusion, 2 second infusion) in Coulburn self-administration boxes. A tone and light above the active lever signalled during a press for cocaine and then a 20 second timeout followed the active lever press.
(§1) After 3-4 weeks of self-administration of cocaine (0.5 mg/infusion) ramping from fixed ratio of 1 lever press (FR1) to receive a reward to a stable fixed ratio of 5 lever presses to receive a reward (FR5) schedule, animals lever pressed for cocaine on a progressive ratio schedule for 4 days. On the second and third day, each animal received a vehicle injection (i.p.), and on the fourth day the animals received an injection (i.p.) of the OXR1 antagonist: SB334867, 10 mg/kg. As a control, orexin modulation of food self-administration was examined under the same paradigm. For food self-administration, animals were trained to an FR5 schedule for food pellets.

[4] = tested on: reinforcement for food; experiment: Operant food self-administration, progressive ratio schedule; format: in vivo, rats
Procedure: as §1
This effect of the OXR1 antagonist was not observed with respect to reinforcement for food. Rats were trained to lever press for food on an […] schedule, and subsequently a progressive ratio schedule. Rats were given vehicle on the 2nd and 3rd day of progressive ratio testing and then SB 334867 (10 mg/kg, i.p.) on the 4th day.

[5] = tested on: NMDA-induced current; experiment: Holding current change on bath-applied NMDA; format: cell-based, rat; details: NMDA 50 μM 30 sec
Procedure: As a final test to determine at what time point after orexin treatment NMDARs were altered, NMDA (50 μM, 30 sec) was bath-applied, and the change in holding current was recorded. There was a significant increase in NMDA-induced current 15 min after orexin A (100 nM) application (orexin A: 344±27 pA, n=7; control: 245±43, n=9, p<0.05, FIG. 7H), but not after 3-4 hours (orexin A: 305±59, n=6; p>0.05, FIG. 7I).

[6] = 10 mg/kg i.p. on 4th day of progressive ratio, n=10

| Compound | effect on cocaine-induced potentiation of AMPAR/NMDAR ratio ([1]; 10 mg/kg i.p. 15 min prior to cocaine) | AMPAR/NMDAR ratio ([1]; cocaine 15 mg/kg + SB334867 10 mg/kg 15 min prior, n=11) | AMPAR/NMDAR ratio ([1]; saline + SB334867 10 mg/kg 15 min prior, n=5) | baseline locomotor activity ([2]; 10 mg/kg i.p. with saline, n=13) | development of sensitization to cocaine ([2]; 10 mg/kg i.p., 5 days) | locomotor activity on day 6 (expression of cocaine sensitization) ([2]; 10 mg/kg injected with cocaine on day 6, n=7 in each group) | distance traveled on day 5 ([2]; SB 334867 10 mg/kg i.p. 15 min prior to cocaine 15 mg/kg i.p.) | locomotor activity on day 1 ([2]; cocaine-treated rats given SB334867 10 mg/kg, n=11) | breakpoint (cocaine) [3] | natural log of active lever presses for cocaine [3] | raw active lever presses for cocaine [3] | total number of cocaine infusions [3] | breakpoint (food) [4, 6] | total number of food pellets received [4, 6] | reinforcement for food ([4]; 10 mg/kg i.p., hydrochloride) | NMDA-induced current ([5]; 3-4 hours after orexin A, n=6) | NMDA-induced current ([5]; 15 min after orexin A 100 nM, n=7) |
| --- | --- | --- | --- | --- | --- | --- | --- | --- | --- | --- | --- | --- | --- | --- | --- | --- | --- |
| Cc1nc2ccc(NC(=O)Nc3ccnc4cccnc34)cc2o1.Cl [SB 334867, 1-(2-methylbenzoxazol-6-yl)-3-[1,5]naphthyridin-4-yl urea hydrochloride] | blocked | 0.5±0.08 | 0.4±0.02 | did not reduce | significantly blocked | not significantly reduced | 8504±2564 cm | 3579±1079 cm | reduced | reduced | reduced | decreased | unaltered | not altered | not observed; also recorded: did not alter | – | – |
| orexin A: neuropeptide synthesized in neurons of the LH; orexin receptor agonist selective for the OXR1 receptor (QPLPDCCRQKTCSCRLYELLHGAGNHAAGILTL; ends and bridges not checked; cysteine pairing not given here; UniProt O43612 34-66, looked up) | – | – | – | – | – | – | – | – | – | – | – | – | – | – | – | 305±59 pA | 344±27 pA |
